The values that follow come from US20260209219A1, “SUBSTITUTED TETRAHYDROPYRROLO-PYRIDINONE COMPOUNDS AND THEIR USE IN TREATING MEDICAL CONDITIONS” (Karuna Therapeutics, Inc., priority 2022, published 2026).

SMILES strings stand for the structures.

The target in one experiment is T1, hM4 receptors (Homo sapiens, UniProt P08173).
T1 construct: expressed in transfected cells; host or cells: CHO cells
T1 sequence (P08173 1-479): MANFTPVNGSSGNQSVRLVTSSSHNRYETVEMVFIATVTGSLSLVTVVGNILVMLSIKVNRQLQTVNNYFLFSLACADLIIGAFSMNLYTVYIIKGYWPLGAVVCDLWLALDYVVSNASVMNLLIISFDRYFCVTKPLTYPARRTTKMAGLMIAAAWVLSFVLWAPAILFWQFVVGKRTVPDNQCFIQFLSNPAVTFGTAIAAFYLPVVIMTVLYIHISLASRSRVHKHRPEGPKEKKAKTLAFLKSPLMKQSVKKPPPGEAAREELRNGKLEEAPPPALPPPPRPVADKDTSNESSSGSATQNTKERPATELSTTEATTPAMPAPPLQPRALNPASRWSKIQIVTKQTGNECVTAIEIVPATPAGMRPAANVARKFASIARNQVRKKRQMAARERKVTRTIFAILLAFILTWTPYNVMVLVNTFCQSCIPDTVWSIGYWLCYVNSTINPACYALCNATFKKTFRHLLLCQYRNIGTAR
The experiment in a line: Human M4 PAM pERK assay. In kind it is cell-based. Particulars: CHO cells expressing hM4; with EC20 of acetylcholine (10 nM final). The procedure: (§1) Chinese hamster ovary (CHO) cells expressing either hM4 or rM4 receptors were frozen in assay ready vials (5×10^6 cells/vial) after bulking-up in culture. The day before an assay, vial(s) were thawed and cells seeded in 384 well white proxiplates at 1000/well for hM4 cells and at 2000/well for rM4 cells, in 10 μL of growth media (Hams/F12 with glutamax and 10% FCS) and incubated overnight at 37° C./5% CO2.
(§2) On the following morning, the growth media was removed by ‘flicking out’ over a bin, patting the inverted plate onto tissue, and then replacing with 10 μL of wash media (Hams/F12 with glutamax and 8 mM HEPES, NB: serum free). Then, the wash media was removed in the same way and replaced with 8 μL/well of the serum free media. Plates were then re-incubated for a further 4 hours at 37° C./5% CO2.
(§3) Compounds for testing were solubilized to 10 mM in DMSO and compound addition plates, consisting of ten-point concentration response curves (CRC) in duplicate points (10 μM top concentration, ½ log dilution series), were prepared by acoustic dispensing and the compound management group.
(§4) After the 4-hour incubation in serum free media, a 4 μL aliquot of the 3× compound solution containing an EC20 of acetylcholine (10 nM final concentration) was added to the cell plate using a 384 well plate to plate transfer. Then, the plate lid was replaced, and the cells incubated for 5 mins at 37° C./5% CO2. Following this final incubation, all cellular processes were stopped by the addition of 4 μL/well of lysis and blocking buffer and plates were incubated for 30 minutes at RT on an orbital shaker (gentle setting). Then, a final addition of 4 μL/well of antibody detection mix, containing both the Europium-Cryptate (donor) and d2 (acceptor) tagged detection components, was added followed by a further 2-hour incubation at RT, and then the plate was read using a TR-FRET (time resolved fluorescence resonance energy transfer) based protocol.

Another experiment addresses T2, human M4 receptor (Homo sapiens, UniProt P08173).
T2 construct: expressed in transfected cells; host or cells: CHO-K1 cells (membrane preparation)
T2 sequence (P08173 1-479): T1 sequence (P08173 1-479)
The experiment in a line: M4 GTPγS PAM assay. Format: biochemical. As to conditions: membranes of CHO-K1 cells stably expressing human M4; EC20 acetylcholine 40 nM. As for the experimental part:
The M4 GTPγS PAM method was used. Membranes were prepared for GTPgS binding assays from CHO-K1 cells stably expressing human M4 receptor. Briefly, cells were grown in 5-layer cell culture flasks. Cells were washed with 50 mL of PBS and then dissociated with 0.05% trypsin. Dissociated cells were then collected by centrifugation at 650×g for 8 minutes at 4° C. Pellets were washed again in PBS by centrifugation and resuspended in 30 mL of 20 mM HEPES, 10 mM EDTA, pH 7.4. After sitting on ice for 30 min, membranes were collected by centrifugation at 50000×g for 15′ at 4° C., resuspended in 30 mL of 20 mM HEPES, 0.1 mM EDTA, pH 7.4 and collected again by centrifugation. Pellets were then washed twice by centrifugation in 30 mL of 20 mM HEPES, pH 7.4, and stored at −80° C. until the day of the assay. On the day of the assay, pellets were thawed on ice and resuspended in 1 mL of 20 mM HEPES, pH 7.4, 10 mM MgCl2, 100 mM NaCl using dounce homogenization. Membrane protein concentration is determined by BCA protein assay (Promega, Madison, WI) according to Promega guidelines.
On the day of the assay, serial dilutions of test PAM compounds were brought up in assay buffer (20 mM HEPES, 10 mM MgCl2, 100 mM NaCl) at 4× final assay concentration. […] of membrane homogenates (containing […] of membrane protein) were prepared in assay buffer supplemented with GDP at 4× final assay concentration (final assay concentration of GDP is 5 μM for M2 and 0.1 μM for M4) and dispensed into 96 well polypropylene, U-bottom Greiner plates. […] of vehicle or test PAM compound at 4× of final assay concentration diluted in the assay buffer were added to membrane and plates are incubated for 10-15 minutes at room temperature with gentle shaking. Then, […] of EC20 acetylcholine in assay buffer at 4× final assay concentration was added to assay plates (EC20 final assay concentrations was 40 nM for human M4).
Plates were then incubated, with shaking, for an additional 10-15 minutes. 25 mL of 0.4 nM ^35S-GTP (Perkin Elmer, Waltham, MA) in assay buffer was added to assay mixtures. The binding reaction is left on the shaker for 1 hour at room temperature. Membranes in assay reactions were then transferred to GF/C filter plates (Unifilter, Perkin Elmer) and washed three times using a FilterMate Harvester (Perkin Elmer) with cold assay buffer containing no GDP. Filter plates were then dried at 40° C. overnight followed by the addition of […] of Beta Plate Scintillation liquid. Plates are top and bottom sealed before being read on TopCount scintillation counter (Perkin Elmer, Waltham, MA).

The next experiment addresses T3, rM4 receptors (Rattus norvegicus, UniProt P08485).
T3 construct: expressed in transfected cells; host or cells: CHO cells
T3 sequence (P08485 1-478): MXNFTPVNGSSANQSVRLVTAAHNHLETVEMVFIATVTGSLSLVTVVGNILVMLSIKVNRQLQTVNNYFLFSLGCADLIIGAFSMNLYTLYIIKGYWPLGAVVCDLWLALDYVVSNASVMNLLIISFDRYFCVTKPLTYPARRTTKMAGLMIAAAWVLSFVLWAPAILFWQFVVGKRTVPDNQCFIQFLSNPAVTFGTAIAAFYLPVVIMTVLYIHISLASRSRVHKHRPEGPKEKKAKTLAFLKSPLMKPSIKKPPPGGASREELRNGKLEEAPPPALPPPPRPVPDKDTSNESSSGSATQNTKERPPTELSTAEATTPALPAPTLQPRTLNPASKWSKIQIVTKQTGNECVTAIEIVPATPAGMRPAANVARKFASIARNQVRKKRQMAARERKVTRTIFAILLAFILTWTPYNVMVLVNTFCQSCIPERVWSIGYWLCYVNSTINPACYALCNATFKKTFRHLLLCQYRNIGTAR
Kind of experiment: Rat M4 PAM pERK assay. In kind it is cell-based. As to conditions: CHO cells expressing rM4; with EC20 of acetylcholine (10 nM final). The procedure: as §1, §2, §3, §4

For orientation: EC50 means the concentration at which the effect is half-maximal. A higher EC50 goes with weaker potency. As to `Cc1c2c(n(C)c(=O)c1C)CN(C(=O)C[C@@H]1C[C@H]1c1ccc(C(F)(F)F)cc1)C2` (relative stereo) [Compound I-18, 1,3,4-Trimethyl-6-([trans-2-(2-(4-(trifluoromethyl)phenyl)cyclopropyl)]acetyl)-1,5,6,7-tetrahydro-2H-pyrrolo[3,4-b]pyridin-2-one], the EC50 at hM4 receptors, on human M4 receptor and on rM4 receptors was 100 to 500 nM each time.
Regarding `Cc1c2c(n(C)c(=O)c1Cl)CN(C(=O)C[C@@H]1C[C@H]1c1ccc(C(F)(F)F)cc1)C2` (relative stereo) [Compound I-31, 3-Chloro-1,4-dimethyl-6-([trans-2-(2-(4-(trifluoromethyl)phenyl)cyclopropyl)]acetyl)-1,5,6,7-tetrahydro-2H-pyrrolo[3,4-b]pyridin-2-one], the EC50 at hM4 receptors, on human M4 receptor and at rM4 receptors was 100 to 500 nM each time.
Take `Cc1cc(=O)n(C)c2c1CN(C(=O)CC1CC1c1ccnc(C(F)(F)F)c1)C2` (single isomer, unassigned) [Compound I-1, 1,4-Dimethyl-6-[trans-(2-(2-(2-(trifluoromethyl)pyridin-4-yl)cyclopropyl)]acetyl)-1,5,6,7-tetrahydro-2H-pyrrolo[3,4-b]pyridin-2-one]: on hM4 receptors, the 50% effective concentration (EC50) was more than 2000 nM.
`Cc1cc(=O)n(C)c2c1CN(C(=O)CC1CC1c1ccnc(C(F)(F)F)c1)C2` (single isomer, unassigned) [Compound I-2]: the 50% effective concentration (EC50) was less than 100 nM on hM4 receptors and 500 to 2000 nM at rM4 receptors.
Consider `Cc1cc(=O)n(C)c2c1CN(C(=O)CC1CC1c1ccc(C(F)(F)F)nc1)C2` (single isomer, unassigned) [Compound I-4], for which the EC50 at hM4 receptors, on human M4 receptor and on rM4 receptors was more than 2000 nM each time.
In the case of `Cc1cc(=O)n(C)c2c1CN(C(=O)CC1CC1c1ccc(C(F)(F)F)nc1)C2` (single isomer, unassigned) [Compound I-5], the figures for the concentration giving a half-maximal response (EC50) at hM4 receptors, on human M4 receptor and at rM4 receptors were 100 to 500 nM, 500 to 2000 nM and less than 100 nM, respectively.
For the compound `Cc1cc(=O)n(C)c2c1CN(C(=O)CC1CC1c1ccc(C(F)(F)F)cc1)C2` (single isomer, unassigned) [Compound I-6], the EC50 at hM4 receptors, on human M4 receptor and at rM4 receptors was more than 2000 nM in each case.
For the compound `Cc1cc(=O)n(C)c2c1CN(C(=O)CC1CC1c1ccc(S(=O)(=O)C(F)(F)F)cc1)C2` (single isomer, unassigned) [Compound I-8], the EC50 on hM4 receptors and at rM4 receptors was more than 2000 nM throughout.
As to `Cc1cc(=O)n(C)c2c1CN(C(=O)CC1CC1c1ccc(S(=O)(=O)C(F)(F)F)cc1)C2` (single isomer, unassigned) [Compound I-9], the EC50 at hM4 receptors and on rM4 receptors was 100 to 500 nM each time.
For the compound `Cc1cc(=O)n(C)c2c1CN(C(=O)CC1CC1c1cccc(C3COC3)c1)C2` (single isomer, unassigned) [Compound I-13], the EC50 on hM4 receptors, on human M4 receptor and at rM4 receptors was more than 2000 nM throughout.
With `Cc1cc(=O)n(C)c2c1CN(C(=O)CC1CC1c1cccc(C3COC3)c1)C2` (single isomer, unassigned) [Compound I-14], the half-maximal effective concentration (EC50) on hM4 receptors and on rM4 receptors was 100 to 500 nM in each case.
As for `Cc1cc(=O)n(C)c2c1CN(C(=O)CC1CC1c1ccc(C3COC3)cc1)C2` (single isomer, unassigned) [Compound I-16], the EC50 at hM4 receptors and on rM4 receptors was more than 2000 nM in each case.
For the compound `Cc1cc(=O)n(C)c2c1CN(C(=O)CC1CC1c1ccc(C3COC3)cc1)C2` (single isomer, unassigned) [Compound I-17], the EC50 was less than 100 nM on hM4 receptors and 100 to 500 nM on rM4 receptors.
The matching figures for `Cc1c2c(n(C)c(=O)c1C)CN(C(=O)CC1CC1c1ccc(C(F)(F)F)cc1)C2` (single isomer, unassigned) [Compound I-19]: more than 2000 nM and more than 2000 nM.
In the same order, the values of `Cc1c2c(n(C)c(=O)c1C)CN(C(=O)CC1CC1c1ccc(C(F)(F)F)cc1)C2` (single isomer, unassigned) [Compound I-20] are 100 to 500 nM and 100 to 500 nM.
For `Cc1c2c(n(C)c(=O)c1C)CN(C(=O)CC1CC1c1cc(F)cc(F)c1)C2` (single isomer, unassigned) [Compound I-22], the concentration giving a half-maximal response (EC50) at hM4 receptors was more than 2000 nM; at human M4 receptor, 500 to 2000 nM; on rM4 receptors it was more than 2000 nM.
As for `Cc1c2c(n(C)c(=O)c1C)CN(C(=O)CC1CC1c1cc(F)cc(F)c1)C2` (single isomer, unassigned) [Compound I-23], the concentration giving a half-maximal response (EC50) on hM4 receptors, at human M4 receptor and on rM4 receptors was less than 100 nM in each case.
As for `Cc1c2c(n(C)c(=O)c1F)CN(C(=O)CC1CC1c1cc(F)cc(F)c1)C2` (single isomer, unassigned) [Compound I-28], the EC50 at hM4 receptors and at rM4 receptors was less than 100 nM throughout.
`COCCc1ccc(C2CC2CC(=O)N2Cc3c(C)cc(=O)n(C)c3C2)cc1` (centres unmarked) [Compound I-11]: the EC50 was in the range of 100 to 500 nM on hM4 receptors and 500 to 2000 nM on rM4 receptors.
The matching figures for `Cc1cc(=O)n(C)c2c1CN(C(=O)CC1CC1c1ccc(C3COC3)cc1)C2` (centres unmarked) [Compound I-15]: 100 to 500 nM and 500 to 2000 nM.
